Assay results as given in patent US4695569A, “Bicyclic heterocyclyl containing N-(bicyclic heterocyclyl)-4-piperidinamines” (Janssen Pharmaceutica N.V., priority 1987, dated 1987).
Read-outs that look alike come from different tables or passages of the source.

Experiments:
[1] = test system: compound 48/80-induced lethality; test: Protection of rats from compound 48/80-induced lethality; format: in vivo, rat (male, inbred Wistar strain); details: Rattus norvegicus, 4 h, read-out: Compound 48/80 lethality test in rats-ED50
Procedure: Protection of rats from compound 48/80-induced lethality
The protection from compound 48/80-induced lethal circulatory collapse appears to be a simple way of evaluating quantitatively the antihistaminic activity of test compounds. Male rats of an inbred Wistar strain, weighing 240-260 g were used in the experiment. After overnight starvation the rats were transferred to conditioned laboratories (temp.=21±1° C., relative humidity=65±5%).
The rats were treated subcutaneously or orally with a test compound or with the solvent (NaCl solution, 0.9%). […] Survival after 4 hours is therefore considered to be a safe criterion of a protective effect of drug administration.
The ED50 -values of the compounds of formula (I) are listed in the first column of table 1. Said ED50 -values are the values in mg/kg body weight at which the tested compounds protect 50% of the tested animals against compound 48/80-induced lethality.

[2] = test system: serotonin; test: Antagonistic activity on the effects of serotonin in the gastric lesion test (lesions induced by compound 48/80); format: in vivo, rat (male, Wistar inbred strain)
Excerpt: The compounds of formula (I) and the pharmaceutically acceptable acid addition salts thereof are also potent serotonin-antagonists. The potency of the subject compounds as serotonin-antagonists is clearly evidenced by the results obtained in the following tests wherein the antagonistic activity of the subject compounds on the effect of serotonin is examined.
Antagonistic activity on the effects of serotonin in the gastric lesion test
Comound 48/80 (a mixture of oligomers obtained by condensation of 4-methoxy-N-methylbenzeneethanamine and formaldehyde) is a potent releaser of vasoactive amines from endogenous stores such as, for example, histamine and serotonin. […] The shock, followed by dead, can be avoided if the rats are pretreated with a classical H 1 antagonist.
Male rats of a Wistar inbred strain, weighing 220-250 g, were starved overnight, water being available ad libitum. The test compounds were administered orally as a solution or as a suspension in aqueous medium. A control rat and a "blank" rat received the test compound. One hour later 5-[4-(diphenylmethyl)-1-piperazinylmethyl]-1-methyl-1H-benzimidazole-2-methanol was administered subcutaneously to all rats at the dose of 2.5 mg/kg.
Four hours after the intravenous injection of compound 48/80, the rats were decapitated and the stomachs were removed. Subsequently the stomachs ere inspected for distension and contents (blood, fluid, food) and thoroughly rinsed. The macroscopic lesions were scored from 0 to +++, 0 corresponding to complete absence of visible lesions and the highest score corresponding to reddish rough patches covering more than half the glandular area.

[3] = Rattus norvegicus, po, 4 h, read-out: gastric lesion test ED50 (distension of the stomach and lesions in the glandular area completely absent in 50% of rats)
[4] = Rattus norvegicus, po, 4 h; read-out: gastric lesion test ED50 (distension of the stomach and lesions in the glandular area completely absent in 50% of rats)

| Compound | ED50 [1] [mg/kg] | ED50 [2, 3] [mg/kg] | ED50 [2, 4] [mg/kg] |
| --- | --- | --- | --- |
| Cc1nc2sccn2c(=O)c1CCN1CCC(Nc2nc3cccnc3n2Cc2ccco2)CC1 [Compound 28] | 0.04 | 0.16 | – |
| Fc1ccc(Cn2c(NC3CCN(CCNc4nc5cnccc5[nH]4)CC3)nc3ccccc32)cc1 [Compound 109] | 0.04 | – | 0.04 |
| Cc1nc2n(c(=O)c1CCN1CCC(Nc3nc4ccccc4n3Cc3ccco3)CC1)CCCS2 [Compound 13] | 0.02 | – | 0.08 |
| Cn1cnc2c(NCCN3CCC(Nc4nc5ccccc5n4Cc4ccc(F)cc4)CC3)ncnc21 [Compound 94] | 0.31 | – | 0.63 |
| Cc1nc2n(c(=O)c1CCN1CCC(Nc3nc4ccccc4n3Cc3ccc(F)cc3)CC1)CCCS2 [Compound 15] | 0.16 | – | 0.31 |
| c1csc(Cn2c(NC3CCN(CCNc4nc5cnccc5[nH]4)CC3)nc3ccccc32)c1 [Compound 117] | 0.02 | – | 0.31 |
| Cn1c(NCCN2CCC(Nc3nc4ccccc4n3Cc3ccc(F)cc3)CC2)nc2cnccc21.O [Compound 108, N-[2-[4-[[1-[(4-fluorophenyl)methyl]-1H-benzimidazol-2-yl]amino]-1-piperidinyl]ethyl]-1-methyl-1H-imidazo[4,5-c]pyridin-2-amine monohydrate] | 0.04 | – | 0.16 |
| Cc1nc2n(c(=O)c1CCN1CCC(Nc3nc4cccnc4n3Cc3ccc(F)cc3)CC1)CCCC2 [Compound 61] | 0.04 | – | 0.31 |
| Cc1nc2n(c(=O)c1CCN1CCC(Nc3nc4ccccc4n3Cc3cccs3)CC1)CCCC2 [Compound 59] | 0.08 | – | 0.31 |
| Cc1nc2n(c(=O)c1CCN1CCC(Nc3nc4cccnc4n3Cc3ccco3)CC1)C(C)CC(C)C2 (stereo not shown) [Compound 63] | 0.08 | – | 0.63 |
| Cc1nc2scc(C)n2c(=O)c1CCN1CCC(Nc2nc3ccccc3n2Cc2ccc(F)cc2)CC1 [Compound 1, 6-[2-[4-[[1-[(4-fluorophenyl)methyl]-1H-benzimidazol-2-yl]amino]-1-piperidinyl]ethyl]-3,7-dimethyl-5H-thiazolo[3,2-a]pyrimidin-5-one] | 0.31 | – | 0.63 |
| Fc1ccc(Cn2c(NC3CCN(CCc4cn5ccccc5n4)CC3)nc3ccccc32)cc1 [Compound 150, 1-[(4-fluorophenyl)methyl]-N-[1-[2-(imidazo[1,2-a]pyridin-2-yl)ethyl]-4-piperidinyl]-1H-benzimidazol-2-amine] | 0.08 | – | 0.63 |
| Cn1cnc2c1c(=O)n(CCN1CCC(Nc3nc4cccnc4n3Cc3ccc(F)cc3)CC1)c(=O)n2C [Compound 12] | 0.16 | 0.31 | – |
| Fc1ccc(Cn2c(NC3CCN(CCc4cn5ccsc5n4)CC3)nc3ccccc32)cc1 [Compound 149, 1-[(4-fluorophenyl)methyl]-N-[1-[2-(imidazo[2,1-b]thiazol-6-yl)ethyl]-4-piperidinyl]-1H-benzimidazol-2-amine] | 0.08 | – | 0.08 |
| Fc1ccc(Cn2c(NC3CCN(CCNc4nc5cnccc5[nH]4)CC3)nc3ncccc32)cc1 [Compound 112] | 0.02 | – | 0.16 |
| Cc1ccc2nc(C)c(CCN3CCC(Nc4nc5cccnc5n4Cc4ccco4)CC3)c(=O)n2c1 [Compound 20] | 0.04 | – | 0.63 |
| Cc1nc2ccccn2c(=O)c1CCN1CCC(Nc2nc3ccccc3n2Cc2cscn2)CC1 [Compound 19] | 0.08 | – | 0.01 |
| Fc1ccc(Cn2c(NC3CCN(Cc4cn5ccncc5n4)CC3)nc3ccccc32)cc1 [Compound 49] | 0.16 | – | 0.63 |
| Cl.Cl.Cl.Fc1ccc(Cn2c(NC3CCN(Cc4cn5c(n4)CNCC5)CC3)nc3ccccc32)cc1 [Compound 152, 1-[(4-fluorophenyl)methyl]-N-[1-[(5,6,7,8-tetrahydroimidazo[1,2-a]pyrazin-2-yl)methyl]-4-piperidinyl]-1H-benzimidazol-2-amine trihydrochloride] | 0.08 | – | 0.63 |
| Cc1nc2n(c(=O)c1CCN1CCC(Nc3nc4cccnc4n3Cc3ccco3)CC1)CC(C)CC2 (stereo not shown) [Compound 58] | 0.04 | – | 0.63 |
